Results on 19 compounds are retold here after patent US10112935B2, “Indazolyl thiadiazolamines and related compounds for inhibition of Rho-associated protein kinase and the treatment of disease” (Lycera Corporation, priority 2015, dated 2018).

Some results are limits rather than exact numbers.

Experiment [1] deals with GST-tagged human ROCK1 catalytic domain 1-477 (Homo sapiens (Human), UniProt Q13464). Nature of the experiment: Inhibition of Rho-associated protein kinase isoform 1 (LANCE Ultra ULight-CREBtide FRET kinase assay). It is filed as biochemical. The settings on record: 30 μM was the highest concentration analyzed. Here is the method:
(§1) Exemplary compounds were tested for ability to inhibit Rho-associated protein kinase isoform 1 (ROCK1) and Rho-associated protein kinase isoform 2 (ROCK2). Assay procedures and results are described below.
(§2) Protein constructs were purified from a baculovirus expression system. The peptide substrate was fluorescent LANCE® Ultra ULight-CREBtide: […] (PerkinElmer, # TRF0107-D). […] After a 90 minute incubation at room temperature on a shaker table, the kinase reaction was stopped by addition of 10 mM EDTA, and phosphorylation of the substrate was detected by adding 1 nM LANCE® Ultra Europium-anti-phospho-CREB (ser133) antibody (PerkinElmer, # TRF0200-D) and incubating for 60 minutes on a shaker at room temperature. The flurorescence resonance energy transfer (FRET) signals were read and analyzed on an Envision™ 2103 Multilabel Reader (Perkin Elmer).
On the technique in general: Time-resolved FRET reads energy transfer from a long-lived donor to a nearby acceptor.

Experiment [2] deals with GST-tagged human ROCK2 catalytic domain 1-553 (Homo sapiens (Human), UniProt O75116). In words: Inhibition of Rho-associated protein kinase isoform 2 (LANCE Ultra ULight-CREBtide FRET kinase assay). The settings on record: for IC50: 30 μM was the highest concentration analyzed; for Selectivity for ROCK2 over ROCK1 (IC50 ROCK1 / IC50 ROCK2): selectivity ROCK2 vs ROCK1. It is filed as biochemical. As to the method:
as §1, §2

GST-tagged human ROCK1 catalytic domain 1-477, sequence (Q13464 1-477): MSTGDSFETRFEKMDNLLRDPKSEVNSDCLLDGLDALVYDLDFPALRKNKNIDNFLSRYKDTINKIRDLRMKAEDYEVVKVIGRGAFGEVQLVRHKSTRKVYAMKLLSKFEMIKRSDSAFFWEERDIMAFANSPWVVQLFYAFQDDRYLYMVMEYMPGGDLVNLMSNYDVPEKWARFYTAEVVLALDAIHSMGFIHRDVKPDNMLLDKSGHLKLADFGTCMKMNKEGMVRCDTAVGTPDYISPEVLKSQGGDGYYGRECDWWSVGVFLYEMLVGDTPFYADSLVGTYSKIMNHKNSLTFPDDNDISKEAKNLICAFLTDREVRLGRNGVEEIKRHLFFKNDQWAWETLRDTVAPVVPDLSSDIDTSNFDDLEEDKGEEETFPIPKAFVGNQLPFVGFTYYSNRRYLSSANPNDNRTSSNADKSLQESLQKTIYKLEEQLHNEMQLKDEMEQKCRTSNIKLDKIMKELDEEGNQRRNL
GST-tagged human ROCK2 catalytic domain 1-553, sequence (O75116 1-553): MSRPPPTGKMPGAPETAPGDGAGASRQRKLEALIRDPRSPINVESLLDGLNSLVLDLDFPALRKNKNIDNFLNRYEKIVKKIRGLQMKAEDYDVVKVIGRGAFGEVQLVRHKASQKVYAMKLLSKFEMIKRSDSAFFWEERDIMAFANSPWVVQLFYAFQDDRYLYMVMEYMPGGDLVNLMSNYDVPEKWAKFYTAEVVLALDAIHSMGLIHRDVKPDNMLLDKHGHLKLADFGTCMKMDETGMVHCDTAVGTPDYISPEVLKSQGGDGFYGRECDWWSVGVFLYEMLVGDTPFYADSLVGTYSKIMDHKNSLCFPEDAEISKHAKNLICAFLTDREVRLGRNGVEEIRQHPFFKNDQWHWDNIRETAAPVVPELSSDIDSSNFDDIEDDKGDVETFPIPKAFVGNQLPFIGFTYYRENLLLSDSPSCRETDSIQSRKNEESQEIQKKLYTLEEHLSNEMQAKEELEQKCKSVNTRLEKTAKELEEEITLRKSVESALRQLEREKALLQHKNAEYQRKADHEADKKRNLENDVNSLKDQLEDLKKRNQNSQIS

Compound `Cc1cc(CC(=O)Nc2cccc(-c3nnc(Nc4ccc5[nH]ncc5c4Cl)s3)c2)on1` [Example 35BN] yielded an IC50 in experiment [1] below 1 µM. In addition, in experiment [2], the concentration for half-maximal inhibition (IC50) was below 1 µM and the “Selectivity for ROCK2 over ROCK1 (IC50 ROCK1 / IC50 ROCK2)” value (from here on “Selectivity … (IC50 ROCK1 / IC50 ROCK2)”) is given as above 5.
Take `CC(=O)Nc1cc(-c2nnc(Nc3ccc4[nH]ncc4c3Cl)s2)cc(C(F)(F)F)c1` [Example 48K]: the half-maximal inhibitory concentration (IC50) in experiment [1] is above 30 µM; in experiment [2], below 1 µM. The “Selectivity … (IC50 ROCK1 / IC50 ROCK2)” value in experiment [2] is recorded as above 100.
The corresponding values for `O=C(Cc1ccon1)Nc1cccc(-c2nnc(Nc3ccc4[nH]ncc4c3Cl)s2)c1` [Example 35BG] are above 30 µM, below 1 µM and above 100.
For `O=C(c1ccnnc1)N1CCN(c2nnc(Nc3ccc4[nH]ncc4c3)s2)CC1` [Example A-36], in that order: above 30 µM, 1 to 15 µM and above 5.
The corresponding values for `Fc1cc(-c2ncco2)cc(-c2nnc(Nc3ccc4[nH]ncc4c3Cl)s2)c1` [Example 46J] are above 30 µM, below 1 µM and above 100.
For the compound `Cn1cc(C(=O)Nc2cc(-c3nnc(Nc4ccc5[nH]ncc5c4)s3)ccc2C(=O)O)cn1` [Example A-5], the IC50 in experiment [1] is below 1 µM. In experiment [2], the IC50 was below 1 µM and the “Selectivity … (IC50 ROCK1 / IC50 ROCK2)” value is above 5.
With `c1cc(-c2cnco2)cc(-c2nnc(Nc3ccc4[nH]ncc4c3)s2)c1` [Example A-26], the IC50 in experiment [1] and in experiment [2] was above 30 µM each time. Moreover, the “Selectivity … (IC50 ROCK1 / IC50 ROCK2)” value in experiment [2] is on record as below 5.
In the case of `CNCc1ccc(C(=O)Nc2cccc(-c3nnc(Nc4ccc5[nH]ncc5c4)s3)c2)cn1` [Example 75K], in experiment [1], the concentration for half-maximal inhibition (IC50) is below 1 µM. Moreover, in experiment [2], the 50% inhibitory concentration (IC50) was below 1 µM and the “Selectivity … (IC50 ROCK1 / IC50 ROCK2)” value is recorded as above 5.
In experiment [1], `CC(=O)Nc1cc(-c2nnc(Nc3ccc4[nH]ncc4c3Cl)s2)ccc1C(F)(F)F` [Example 48O] displayed a concentration for half-maximal inhibition (IC50) above 30 µM. Moreover, in experiment [2], the concentration for half-maximal inhibition (IC50) is below 1 µM and the “Selectivity … (IC50 ROCK1 / IC50 ROCK2)” value is reported as above 100.
As for `CC(=O)Nc1cc(C(=O)O)cc(-c2nnc(Nc3ccc4[nH]ncc4c3)s2)c1` [Example 48AE], the IC50 in experiment [1] and in experiment [2] was below 1 µM throughout.
On to `CS(=O)(=O)Nc1cncc(-c2nnc(Nc3ccc4[nH]ncc4c3)s2)c1` [Example A-18], for which the IC50 in experiment [1] is 1 to 15 µM. Moreover, in experiment [2], the half-maximal inhibitory concentration (IC50) was in the range of 1 to 15 µM and the “Selectivity … (IC50 ROCK1 / IC50 ROCK2)” value is recorded as below 5.
The compound `Clc1c(Nc2nnc(-c3cccc4[nH]c(-c5cccs5)nc34)s2)ccc2[nH]ncc12` [Example 56B] gave an IC50 in experiment [1] above 30 µM. For the same compound, in experiment [2], the IC50 was below 1 µM and the “Selectivity … (IC50 ROCK1 / IC50 ROCK2)” value is given as above 100.
For `Cc1cccc(CNC(=O)c2cccc(-c3nnc(Nc4ccc5[nH]ncc5c4Cl)s3)c2)n1` [Example 75G], in that order: below 1 µM, below 1 µM and below 5.
The corresponding values for `O=C(Nc1cccc(-c2nnc(Nc3ccc4[nH]ncc4c3)s2)n1)c1c[nH]cn1` [Example A-31] are above 30 µM, below 1 µM and above 100.
`CCOC(=O)N(c1nnc(-c2cccc(NC(=O)Cc3ccc(F)cc3)c2)s1)c1ccc2[nH]ncc2c1Cl` [Example 54A] had an IC50 in experiment [2] of 1 to 15 µM.
For the compound `Clc1c(Nc2nnc(-c3cccc4c3ncn4CCN3CCCC3)s2)ccc2[nH]ncc12` [Example 56A], the IC50 in experiment [2] is 1 to 15 µM.
Compound `O=C(Nc1cccc(-c2nnc(Nc3ccc4[nH]ncc4c3Cl)s2)c1)C1CCNCC1` [Example 35AC] displayed an IC50 in experiment [1] of 1 to 15 µM.
Still for that read-out and setting: the figure for `CN1CC(C(=O)Nc2cccc(-c3nnc(Nc4ccc5[nH]ncc5c4Cl)s3)c2)C1` [Example 35X] is 1 to 15 µM; for `CC1(C(=O)Nc2cccc(-c3nnc(Nc4ccc5[nH]ncc5c4Cl)s3)c2)CCCCC1` [Example 35L] it is 1 to 15 µM.

What is called IC50 is the concentration that inhibits the measured activity by half. Read a low IC50 as greater potency.
